The values below come from article PMC6150242, “Design, Synthesis and Anticancer Evaluation of Fangchinoline Derivatives” (Molecules : A Journal of Synthetic Chemistry and Natural …, 2017).

Common to all, as to type: cell-based
Data set [1] has as its system human breast cancer MDA-MB-231 cell line. As to the kind of experiment: MTT in vitro cytotoxicity assay, MDA-MB-231. The following applies: MDA-MB-231, MTT assay after 48 h of treatment, averaged from at least 3 independent experiments, variation ±10%, read-out: IC50 (µM) MDA-MB-231. As to the method:
(§1) As summarized in Table 1, five cancer cell lines, including MDA-MB-231, PC3, WM9, HEL and K562 cell lines, were induced for testing the anti-cancer activities of those derivatives. The first line anti-cancer drug, vincristine, was treated as positive control. All the test compounds were dissolved in DMSO. The preliminary structure-activity relationship of all compounds against the 5 cancer cell lines was also investigated.
(§2) Human erythroleukemic cell lines HEL and K562, human breast cell lines MDA-MB-231, human prostate cell lines PC3 and human melanoma cell lines WM9 were cultured in RPMI (HEL and K562) or DMEM (MDA-MB-231, PC3, WM9) medium (high glucose) supplemented with 5% FBS (HyClone, GE Healthcare, Parramatta, Australia) and 1% ampicillin/streptomycin.
(§3) Cells were cultured in 96-well plates at densities of 1 × 10^5/well. The plates were pre-incubated at 37 °C for 24 h to allow adaptation of cells prior to the addition of the test compounds. Then, compounds were added to cells in triplicate in several doses, and incubated for an additional 2 days. The 50% inhibitory concentrations (IC50) were measured for fangchinoline derivatives using MTT (diphenyltetrazolium bromide) assay.
For orientation: Tetrazolium assays rely on reduction of a dye to a coloured formazan, in cell work by metabolically active cells.

Data set [2] relates to human prostate cancer PC3 cell line. As to the kind of experiment: MTT in vitro cytotoxicity assay, PC3. To be noted: PC-3, MTT assay after 48 h of treatment, averaged from at least 3 independent experiments, variation ±10%, read-out: IC50 (µM) PC3. As to the method: as §1, §2, §3
The test system of data set [3] is human leukaemia HEL cell line. Description: MTT in vitro cytotoxicity assay, HEL. To be noted: MTT assay after 48 h of treatment, averaged from at least 3 independent experiments, variation ±10%, read-out: IC50 (µM) HEL. The method, then: as §1, §2, §3
Data set [4] deals with human leukaemia K562 cell line. Description: MTT in vitro cytotoxicity assay, K562. The following applies: K562, MTT assay after 48 h of treatment, averaged from at least 3 independent experiments, variation ±10%, read-out: IC50 (µM) K562. As to the method: as §1, §2, §3
Data set [5] has as its system human melanoma WM9 cell line. As to the kind of experiment: MTT in vitro cytotoxicity assay, WM9. The following applies: Homo sapiens, WM9; MTT assay after 48 h of treatment; averaged from at least 3 independent experiments; variation ±10%; read-out: IC50 (µM) WM9. The method, then: as §1, §2, §3
Data set [6] deals with normal human liver cell line HL7702. Description: Toxicity on normal human liver cell line. To be noted: HL7702 versus cancer cell lines. The method, then:
(§4) 3 fangchinoline derivatives were also tested for their toxicities on normal human liver cell line HL7702.
as §3

A short description of data set [7]: Toxicity on normal human liver cell line. To be noted: HL7702 normal liver cells; normal human liver cell line HL7702; read-out: IC50 against HL7702 cell growth. As to the method: as §4, §3

`COc1ccc2cc1Oc1ccc(cc1)C[C@H]1c3cc(c(OC)cc3CCN1C)Oc1c(OC(=O)c3ccccc3)c(OC)cc3c1[C@H](C2)N(C)CC3` [Compound 3i, 7-O-Benzoyl-fangchinoline]: the 50% inhibitory concentration (IC50) (in general, the point on the concentration scale where inhibition reaches its midpoint) in data set [1] turned out to be 3.46 µM; in data set [2] it was 4.57 µM; in data set [3], 2.04 µM; in data set [4] it was 2.86 µM; in data set [5], 2.73 µM.

`COc1ccc2cc1Oc1ccc(cc1)C[C@H]1c3cc(c(OC)cc3CCN1C)Oc1c(OC(=O)c3ccco3)c(OC)cc3c1[C@H](C2)N(C)CC3` [Compound 3g, 7-O-(Furan-m-formyl)-fangchinoline]: the 50% inhibitory concentration (IC50) is 6.02 µM in data set [1]; 4.33 µM in data set [2]; 4.04 µM in data set [3]; 6.39 µM in data set [4]; 3.13 µM in data set [5]. Besides, the “fold lower toxicity on HL7702 than inhibition on cancer cell lines” value in data set [6] is recorded as about 3 fold. Besides, in data set [7], the IC50 at 2 days is 17.3 µM.

`COc1cc(Cl)c2cc1Oc1ccc(cc1)C[C@H]1c3cc(c(OC)cc3CCN1C)Oc1c(OC(=O)c3ccccc3)c(OC)c(Cl)c3c1[C@H](C2)N(C)CC3` [Compound 4b, 7-O-Benzoyl-5,14-dichloro-fangchinoline]: the IC50 in data set [1] is 7.22 µM; in data set [2], 3.85 µM; in data set [3] it was 5.11 µM; in data set [4], 3.16 µM; in data set [5], 3.54 µM.

For the compound `COc1ccc2cc1Oc1ccc(cc1)C[C@H]1c3cc(c(OC)cc3CCN1C)Oc1c(OC(C)=O)c(OC)cc3c1[C@H](C2)N(C)CC3` [Compound 3a, 7-O-Acetyl-fangchinoline], the IC50 in data set [1] amounted to 6.67 µM; in data set [2], 3.01 µM; in data set [3], 2.75 µM; in data set [4], 6.99 µM; in data set [5], 2.65 µM.

On to `COc1ccc2cc1Oc1ccc(cc1)C[C@H]1c3cc(c(OC)cc3CCN1C)Oc1c(OS(=O)(=O)c3ccccc3[N+](=O)[O-])c(OC)cc3c1[C@H](C2)N(C)CC3` [Compound 3c, 7-O-(o-Nirtobenzessulfonyl)-fangchinoline], for which the half-maximal inhibitory concentration (IC50) in data set [1] worked out at 8.7 µM; in data set [2], 4.76 µM; in data set [3], 6.82 µM; in data set [4] it was 4.06 µM; in data set [5], 3.58 µM.

Regarding `CC[C@]1(O)C[C@H]2CN(CCc3c([nH]c4ccccc34)[C@@](C(=O)OC)(c3cc4c(cc3OC)N(C=O)[C@H]3[C@@](O)(C(=O)OC)[C@H](OC(C)=O)[C@]5(CC)C=CCN6CC[C@]43[C@@H]65)C2)C1` [Vincristine, reference compound], the IC50 in data set [1] stood at 13.1 µM; in data set [2], 5.36 µM; in data set [3] it was 6.38 µM; in data set [4] it was 5.62 µM; in data set [5], 10.6 µM.

As for `COc1cc(Br)c2cc1Oc1ccc(cc1)C[C@H]1c3cc(c(OC)cc3CCN1C)Oc1c(OC(=O)c3ccccc3)c(OC)c(Br)c3c1[C@H](C2)N(C)CC3` [Compound 4a, 7-O-Benzoyl-5,14-dibromo-fangchinoline], the IC50 worked out at 4.12 µM in data set [1]; 4.22 µM in data set [2]; 2.65 µM in data set [3]; 2.45 µM in data set [4]; 2.51 µM in data set [5].

For `COc1ccc2cc1Oc1ccc(cc1)C[C@H]1c3cc(c(OC)cc3CCN1C)Oc1c(OCc3ccccc3)c(OC)cc3c1[C@H](C2)N(C)CC3` [Compound 1a, 7-O-Benzyl-fangchinoline], the 50% inhibitory concentration (IC50) was 5.13 µM in data set [1]; 3.65 µM in data set [2]; 4.42 µM in data set [3]; 4.75 µM in data set [4]; 3.44 µM in data set [5].

Consider `C=CCOc1c(OC)cc2c3c1Oc1cc4c(cc1OC)CCN(C)[C@H]4Cc1ccc(cc1)Oc1cc(ccc1OC)C[C@@H]3N(C)CC2` [Compound 1c, 7-O-(Prop-1-ene)-fangchinoline], for which the concentration for half-maximal inhibition (IC50) in data set [1] is 5.04 µM; in data set [2], 4.75 µM; in data set [3] it was 4.72 µM; in data set [4], 6.78 µM; in data set [5], 3.05 µM.

`COc1cc([N+](=O)[O-])c2cc1Oc1ccc(cc1)C[C@H]1c3cc(c(OC)cc3CCN1C)Oc1c(OCc3ccccc3)c(OC)cc3c1[C@H](C2)N(C)CC3` [Compound 2a, 7-Benzyl-14-nitro-fangchinoline]: the IC50 was 8.6 µM in data set [1]; 3.69 µM in data set [2]; 8.96 µM in data set [3]; 8.33 µM in data set [4]; 3.04 µM in data set [5]. In addition, the IC50 at 2 days in data set [7] worked out at 5.6 µM.

As to `COc1ccc2cc1Oc1ccc(cc1)C[C@H]1c3cc(c(OC)cc3CCN1C)Oc1c(OCC=C(C)C)c(OC)cc3c1[C@H](C2)N(C)CC3` [Compound 1b, 7-O-(3-Methylbut-1-ene)-fangchinoline], the IC50 in data set [1] is 4.44 µM; in data set [2], 7.22 µM; in data set [3] it was 4.01 µM; in data set [4] it was 6.6 µM; in data set [5], 5.56 µM.

On to `COc1ccc2cc1Oc1ccc(cc1)C[C@H]1c3cc(c(OC)cc3CCN1C)Oc1c(OS(=O)(=O)c3ccc(C)cc3)c(OC)cc3c1[C@H](C2)N(C)CC3` [Compound 3b, 7-O-Tosyl-fangchinoline], for which the IC50 worked out at 4.61 µM in data set [1]; 3.59 µM in data set [2]; 2.95 µM in data set [3]; 3.85 µM in data set [4]; 3.95 µM in data set [5].
